# Patent publication US10723716B2, “Alpha-helix mimetics as modulators of Abeta self-assembly” (New York University, priority 2016, dated 2020)
# “Also recorded” adds a separate entry of the source.
# How the values were obtained:
# Aβ42 [1] = biological target: T1, Aβ42 (Homo sapiens, UniProt P05067); assay: Transmission electron microscopy (TEM) of Aβ42; assay type: biochemical; conditions: for Aβ42 oligomers seen by TEM after addition to preformed oligomers: 5 μM Aβ42, compound added to preformed oligomers (2 h), equimolar
# T1 construct: Cleavage of APP results in several Aβ isoforms; The predominant species are Aβ42 and Aβ40; purchased Anaspec (Fremont, Calif., USA)
# Procedure: Aβ42 (5 μM) was incubated in phosphate buffer in the absence and presence of the compounds of the invention at various time intervals and stoichiometric ratios. Aliquots of these samples were then applied to glow-discharged carbon-coated 300-mesh copper grids for 2 min and dried. Grids were negatively stained with uranyl acetate (2%, w/v) and dried. Micrographs of grids were examined on a Phillips CM12 Cryoelectron Microscope equipped with Gatan 4k×2.7k CCD camera at 120-kV accelerating voltage.
# [2] = tested on: Aβ42 mediated toxicity in mouse neuroblastoma (N2a) cells; assay: Aβ42 mediated toxicity in Neuro-2a cells (MTS cell viability); assay type: cell-based; conditions: for cell viability: 5 μM Aβ42, equimolar ratio, 72 h; for effect on Aβ42 mediated cytotoxicity: equimolar ratio, Neuro-2a cells
# Procedure: Cell viability was determined using a CellTiter 96® AQueous One Solution Cell Proliferation Assay (MTS) kit (Promega), which measures the reduction of the tetrazolium compound MTS (3-(4,5-dimethylthiazol-2-yl)-5-(3-carboxymethoxyphenyl)-2-(4-sulfophenyl)-2H-tetrazolium, inner salt) to soluble formazan by mitochondrial dehydrogenase enzyme in living cells. Formazan can be measured at 490 nm according to the manufacturer's instructions.
# Neuro-2a cells (ATCC® […]) were maintained in serum-containing media [Dulbecco's Modified Eagle's Medium—high glucose (DMEM, Sigma) supplemented with 10% foetal bovine serum (FBS), 4 mM L-Glutamine (Sigma), and 1% penicillin/streptomycin (Sigma)] in 5% CO2 at 37° C. Once the cells reached ˜95% confluence, they were split (using 0.25% trypsin-EDTA, Sigma, St. Louis, USA), seeded at a density of 5×10^3 cells/well in 100 μL complete medium in 96-well plates and cultured for 48 h. Thereafter, the media was removed, the cells washed with phosphate buffered saline (PBS), and 90 μL of serum-free DMEM was added to the wells. A solution (A) containing 50 μM Aβ42 in NaOH (pH 10.5) was prepared and kept on ice, and a solution (B) containing 50 μM of the oligopyridylamide compound, H2O (2.33 μL/well) and 1× and 10×PBS was prepared and kept at room temperature. The solutions were combined, vortexed and 10 μL of this solution immeadiatly added to each well. The final concentrations in the wells were: 5 μM Aβ42, 5 μM oligopyridylamide, 200 μM NaOH, 0.1×PBS and 0.5% (v/v) DMSO.
# To investigate the toxic effect of the peptide alone on cell viability, solution (B) without the oligopyridylamide compound was mixed with solution (A), while the effect of the oligopyridylamide compound alone was determined by adding solution (A) without peptide to solution (B). The effect of oligopyridylamides on seed-catalyzed Aβ42 aggregation was probed by preparing an additional solution (C) containing 0.5 μM seeds. The volume contributed by solution (C) was taken into account in preparing solution (B). Solution (C) was mixed with solution (B), and the resulting mixture was then added to solution (A) shortly before addition to the wells. To study the effect of oligopyridylamides on the oligomeric states of Aβ42, solution (A) was mixed with solution (B) without inhibitor and incubated at room temperature for 1, 2 or 3 h. Subsequently, 50 μM oligopyridylamides was added to the mixture, which was then immediately added to the cells. After culturing for 72 h in 5% CO2 at 37° C., 20 μL of MTS reagent was added to each well. The MTS reagent was incubated for 2.5 h at 37° C., and absorbance of the soluble formazan product (λ=490 nm) of MTS reduction was measured on a Synergy H1MF Multi-Mode microplate-reader (BioTek, Winooski, Vt., USA), with a reference wavelength of 650 nm to subtract the background. Wells treated with a solution containing serum-free DMEM, 200 μM NaOH, 0.1×PBS and 0.5% (v/v) DMSO served as control. MTS reduction was determined from the ratio of the absorbance of the treated wells to the control wells. Each data point represents an average of four independent quadruplet-well trials.
# Aβ42 [3] = biological target: T1, Aβ42; assay: Dot blot assay with A11 antibody; assay type: biochemical; conditions: Aβ42, equimolar ratio, whole time course
# Procedure: Samples of Aβ42 at concentrations from 2 μM to 5 μM were incubated at various time intervals in the absence and presence of the compounds of the invention at an equimolar ratio (see FIG. 4j). The samples were then applied to a nitrocellulose membrane and dried at room temperature for 1 h or overnight at 4° C. The membranes were then blocked with 5% nonfat milk in Tris buffer (20 mM Tris, pH 7.4) for 1 h at room temperature. The nitrocellulose membranes were then washed (×3) with 20 mM Tris, pH 7.4 supplemented with 0.01% Tween-20 (TBST) and incubated with polyclonal A11 antibody (1/1000 dilution in 5% nonfat milk in TBST, Life Technologies Corp., Grand Island, N.Y., USA) overnight at 4° C. Samples were then washed (×3) with TBST buffer and incubated with horseradish peroxidase (HRP) conjugated anti-rabbit IgG (1/500 dilution in 5% nonfat free milk in TBST) at r.t. for 1 h. The dot blots were then washed with TBST buffer (×3), developed using the ECL reagent kit (Amersham, Piscataway, N.J., USA), and imaged using a Typhoon FLA 9000 instrument (GE Healthcare Life Sciences, Pittsburgh, Pa., USA) using chemiluminescence settings. A similar experiment was repeated using 6E10 antibody ( 1/1000 dilution in 5% nonfat free milk in TBST, Biolegend, San Diego, Calif., USA) for comparison.
# [4] = compound added to 5 μM Aβ42 after 1 h from start of amyloid reaction, Aβ42 alone 46%
# [5] = compound added to 5 μM Aβ42 after 2 h from start of amyloid reaction, Aβ42 alone 57%
# [6] = compound added to 5 μM Aβ42 after 3 h from start of amyloid reaction, Aβ42 alone 62%
# T1 sequence (P05067 672-713 limits assumed): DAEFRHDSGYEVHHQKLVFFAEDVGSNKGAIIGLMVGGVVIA
Aβ42 oligomers seen by TEM after addition to preformed oligomers (Aβ42 [1]),"fibers of Aβ42 seen by TEM (Aβ42 [1]; 5 μM Aβ42, equimolar ratio, after 12 h)",A11 signal intensity of the dots (Aβ42 [3]),"fibers of Aβ42 seen by TEM (Aβ42 [1]; 5 μM Aβ42, 1:0.1 (Aβ42:ADH-41), 24 h)","oligomers/fibers of Aβ42 seen by TEM (Aβ42 [1]; 5 μM Aβ42, 1:1 or 1:0.5 (Aβ42:ADH-41), even after 2 days)","elongated fibers seen by TEM in seed-catalyzed Aβ42 aggregation (Aβ42 [1]; 20 μM Aβ42 + seeds, equimolar ratio, 24 h)",Compound,cell viability [2],"cell viability, preformed Aβ42 oligomers [2, 4]","cell viability, preformed Aβ42 oligomers [2, 5]","cell viability, preformed Aβ42 oligomers [2, 6]",effect on Aβ42 mediated cytotoxicity [2],"rank order for the antagonist activity ([2]; Aβ42 mediated cytotoxicity and aggregation, 5 μM, 1:1 (FIG. 26a))"
No formation of Aβ42 oligomers,no fibers were recorded,weak intensities,–,–,–,COC(=O)c1ccc(NC(=O)c2ccc(NC(=O)c3ccc(NC(=O)c4ccc([N+](=O)[O-])c(OCC(C)C)n4)c(OCc4ccccc4)n3)c(OCC(=O)O)n2)c(OCC(=O)O)n1 [ADH-31],97%±1%,90%,89%,95%,effective at rescuing cells,–
No formation of Aβ42 oligomers,–,significantly weaker,sparse population of fibers,no formation of oligomers/fibers,no elongated fibers were observed,COC(=O)c1ccc(NC(=O)c2ccc(NC(=O)c3ccc([N+](=O)[O-])c(OCc4ccccc4)n3)c(OCCCN)n2)c(OCCCN)n1 [ADH-41],98±2%,72%,68%,67%,completely inhibited; also recorded: effective at rescuing cells; also recorded: equally effective; also recorded: completely rescues,ADH41>ADH46>ADM-40≥ADM-45A
